Measurements taken from PubChem BioAssay (NCI).
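48-hour exposure; five concentrations; linearly interpolated endpoints. TGI: total growth inhibition.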

Experiments:
Test in all cases: inhibition of tumour cell growth, NCI panel, 48 h
[1] = system: HL-60(TB) leukemia
[2] = system: RXF 393 renal
[3] = system: SK-MEL-5 melanoma
[4] = system: T-47D breast
[5] = system: UACC-62 melanoma
[6] = system: U251 CNS
[7] = system: SR leukemia
[8] = system: HOP-92 NSCLC
[9] = system: IGROV1 ovarian
[10] = system: HCT-15 colon
[11] = system: SF-295 CNS
[12] = system: CAKI-1 renal
[13] = system: SW-620 colon
[14] = system: SK-MEL-28 melanoma
[15] = system: MALME-3M melanoma
[16] = system: M14 melanoma
[17] = system: 786-0 renal
[18] = system: OVCAR-8 ovarian
[19] = system: MCF7 breast
[20] = system: UACC-257 melanoma
[21] = system: A498 renal
[22] = system: A549 NSCLC
[23] = system: LOX IMVI melanoma
[24] = system: OVCAR-3 ovarian
[25] = system: PC-3 prostate
[26] = system: EKVX NSCLC
[27] = system: MDA-N
[28] = system: SNB-19 CNS
[29] = system: OVCAR-4 ovarian
[30] = system: NCI-H23 lung
[31] = system: ACHN renal
[32] = system: OVCAR-5 ovarian
[33] = system: DU-145 prostate
[34] = system: NCI-H226 lung
[35] = system: HCT-116 colon
[36] = system: TK-10 renal
[37] = system: KM12 colon
[38] = system: HOP-62 NSCLC
[39] = system: MDA-MB-435
[40] = system: NCI/ADR-RES ovarian
[41] = system: HT29 colon
[42] = system: BT-549 breast
[43] = system: RPMI-8226 leukemia
[44] = system: K-562 leukemia
[45] = system: SK-MEL-2 melanoma
[46] = system: SN12C renal
[47] = system: NCI-H522 lung
[48] = system: SK-OV-3 ovarian
[49] = system: SF-268 CNS
[50] = system: MOLT-4 leukemia
[51] = system: COLO 205 colon
[52] = system: HS 578T breast
[53] = system: MDA-MB-231 breast
[54] = system: UO-31 renal
[55] = system: SNB-75 CNS
[56] = system: NCI-H460 lung
[57] = system: SF-539 CNS
[58] = system: CCRF-CEM leukemia

CCC1c2[nH]c3ccccc3c2C[C@H]2C(=O)NC(Cc3c[nH]c4ccccc34)C(=O)N12 (stereo partly specified)
TGI [1]: 46.4 µM | TGI [2]: 37.1 µM | TGI [3]: 31.8 µM | TGI [4]: > 100 µM | TGI [5]: 32.6 µM | TGI [6]: 34.7 µM | TGI [7]: 49.6 µM | TGI [8]: 74 µM | TGI [9]: 65.2 µM | TGI [10]: 78.2 µM | TGI [11]: 35 µM | TGI [12]: 67.3 µM | TGI [13]: > 100 µM | TGI [14]: > 100 µM | TGI [15]: 36.3 µM | TGI [16]: 49.2 µM | TGI [17]: 55.1 µM | TGI [18]: 94 µM | TGI [19]: > 100 µM | TGI [20]: 42.2 µM | TGI [21]: > 100 µM | TGI [22]: > 100 µM | TGI [23]: 49.3 µM | TGI [24]: 37.8 µM | TGI [25]: 53.1 µM | TGI [26]: 88.3 µM | TGI [27]: 55.2 µM | TGI [28]: > 100 µM | TGI [29]: > 100 µM | TGI [30]: 63.2 µM | TGI [31]: > 100 µM | TGI [32]: 58.5 µM | TGI [33]: > 100 µM | TGI [34]: 82.1 µM | TGI [35]: 35.1 µM | TGI [36]: 80.4 µM | TGI [37]: 43.4 µM | TGI [38]: 50.6 µM | TGI [39]: 41.1 µM | TGI [40]: 76.6 µM | TGI [41]: 62.2 µM | TGI [42]: 52.9 µM | TGI [43]: 55.8 µM | TGI [44]: > 100 µM | TGI [45]: 38.6 µM | TGI [46]: 52.6 µM | TGI [47]: 55 µM | TGI [48]: > 100 µM | TGI [49]: > 100 µM | TGI [50]: 47.9 µM | TGI [51]: 36.2 µM | TGI [52]: 49.4 µM | TGI [53]: 38.1 µM | TGI [54]: > 100 µM

NC(=O)CC(N)C(N)=O (stereo unspecified)
TGI [1]: > 100 µM | TGI [2]: > 100 µM | TGI [3]: > 100 µM | TGI [4]: > 100 µM | TGI [5]: > 100 µM | TGI [6]: > 100 µM | TGI [7]: > 100 µM | TGI [8]: > 100 µM | TGI [9]: > 100 µM | TGI [10]: > 100 µM | TGI [11]: > 100 µM | TGI [55]: > 100 µM | TGI [12]: > 100 µM | TGI [56]: > 100 µM | TGI [13]: > 100 µM | TGI [14]: > 100 µM | TGI [15]: > 100 µM | TGI [16]: > 100 µM | TGI [17]: > 100 µM | TGI [18]: > 100 µM | TGI [19]: > 100 µM | TGI [20]: > 100 µM | TGI [21]: > 100 µM | TGI [22]: > 100 µM | TGI [23]: > 100 µM | TGI [24]: > 100 µM | TGI [25]: > 100 µM | TGI [27]: > 100 µM | TGI [28]: > 100 µM | TGI [29]: > 100 µM | TGI [57]: > 100 µM | TGI [30]: > 100 µM | TGI [31]: > 100 µM | TGI [33]: > 100 µM | TGI [34]: > 100 µM | TGI [35]: > 100 µM | TGI [36]: > 100 µM | TGI [37]: > 100 µM | TGI [38]: > 100 µM | TGI [39]: > 100 µM | TGI [40]: > 100 µM | TGI [42]: > 100 µM | TGI [43]: > 100 µM | TGI [44]: > 100 µM | TGI [45]: > 100 µM | TGI [46]: > 100 µM | TGI [47]: > 100 µM | TGI [48]: > 100 µM | TGI [58]: > 100 µM | TGI [50]: > 100 µM | TGI [51]: > 100 µM | TGI [52]: > 100 µM | TGI [53]: > 100 µM

COc1ccc(N)c(C(=O)CCNC(C)=O)c1
TGI [1]: > 100 µM | TGI [2]: > 100 µM | TGI [3]: > 100 µM | TGI [4]: > 100 µM | TGI [5]: > 100 µM | TGI [6]: > 100 µM | TGI [7]: > 100 µM | TGI [8]: > 100 µM | TGI [9]: > 100 µM | TGI [10]: > 100 µM | TGI [11]: > 100 µM | TGI [55]: > 100 µM | TGI [12]: > 100 µM | TGI [56]: > 100 µM | TGI [13]: > 100 µM | TGI [16]: > 100 µM | TGI [17]: > 100 µM | TGI [18]: > 100 µM | TGI [19]: > 100 µM | TGI [20]: > 100 µM | TGI [21]: > 100 µM | TGI [22]: > 100 µM | TGI [23]: > 100 µM | TGI [24]: > 100 µM | TGI [25]: > 100 µM | TGI [26]: > 100 µM | TGI [27]: > 100 µM | TGI [28]: > 100 µM | TGI [29]: > 100 µM | TGI [57]: > 100 µM | TGI [30]: > 100 µM | TGI [31]: > 100 µM | TGI [32]: > 100 µM | TGI [33]: > 100 µM | TGI [34]: > 100 µM | TGI [35]: > 100 µM | TGI [36]: > 100 µM | TGI [37]: > 100 µM | TGI [39]: > 100 µM | TGI [40]: > 100 µM | TGI [41]: > 100 µM | TGI [42]: > 100 µM | TGI [43]: > 100 µM | TGI [45]: > 100 µM | TGI [46]: > 100 µM | TGI [47]: > 100 µM | TGI [48]: > 100 µM | TGI [58]: > 100 µM | TGI [49]: > 100 µM | TGI [50]: > 100 µM | TGI [51]: > 100 µM | TGI [52]: > 100 µM | TGI [53]: > 100 µM | TGI [54]: > 100 µM
